Patent US8969333B2, “Therapeutic compositions and methods” (The Penn State Research Foundation, priority 2010, dated 2015)
Read-outs that look alike come from different tables or passages of the source.

Assays:
S180 tumor = assay: Sarcoma S180 cell-derived mouse tumor model; type: in vivo; conditions: SAHA 5 mg/kg daily for 1 week
Text: A well-established sarcoma S180 cell-derived mouse tumor model is used in this example to determine the effects of PAD4 inhibitors of the present invention on tumor growth in mice.
(§1) S180 ascites tumor cells were used to form solid tumors after subcutaneous injection essentially as described in Wang, W. et al., Mol. Biosyst., 2011, 7:766-772. In brief, for initiation of subcutaneous tumors, the cells were obtained as an ascitic form from the tumor-bearing mice, which were serially transplanted once per week. Subcutaneous tumors were implanted by injecting 0.2 ml of 0.9% saline containing 1×10^7 viable tumor cells under the skin on the right armpit. 24 hr after implantation, male ICR mice were randomly divided into experimental groups. The mice in the positive control group were given a daily i.p injection of 2 mg/kg of doxorubicin in 0.2 ml of 0.9% saline for 7 consecutive days. The mice in the negative control group were given a daily i.p injection of 0.2 ml of 0.9% saline for 7 consecutive days. The mice in the treatment groups were given a daily i.p injection of YW3-56 (10 mg/kg), SAHA (5 mg/kg), or a combination of YW3-56 (5 mg/kg) and SAHA (2.5 mg/kg) for 7 consecutive days. The weights of the mice were recorded every day. 24 hr after the last administration, all mice were weighed, euthanized and immediately dissected to obtain and weigh the tumor and vital organs.

[1] = Body and vital organ weight after 1 week of treatment; type: in vivo, mouse
Protocol: as §1, with “The mice in the treatment groups were given a daily i.p injection of YW3-56 (10 mg/kg), SAHA (5 mg/kg), or a combination of YW3-56 (5 mg/kg) and SAHA (2.5 mg/kg) for 7 consecutive days.” left out, “24 hr after the last administration, all mice were weighed, euthanized and immediately dissected to obtain and weigh the tumor and vital organs.” left out
FIG. 13A-13F show weight of whole body, FIG. 13A; brain, FIG. 13B; heart, FIG. 13C; liver, FIG. 13D; kidney, FIG. 13E; and spleen, FIG. 13F measured in mice after 1 week of treatment with daily intraperitoneal injection of control PBS, YW3-56 at 10 mg/kg body weight, SAHA at 5 mg/kg body weight, a mixture of YW3-56 at 5 mg/kg body weight and SAHA at 2.5 mg/kg body weight, or doxorubicin at 2 mg/kg body weight. * in (f) denotes a loss of spleen weight after doxorubicin treatment.

[2] = test system: PAD4-/- mouse neutrophils; assay: Histone citrullination, enlarged nucleus and NET formation in PAD4-/- neutrophils; type: cell-based; conditions: U.D. = undetectable
Protocol: (§2) NET formation is induced after lipopolysaccharides (LPS) and phorbol myristate acetate (PMA) treatment in human neutrophils (Brinkmann et al., 2004). To test whether PAD4 is important for chromatin decondensation and NET formation upon LPS treatment, immunostaining experiments are performed. Before LPS treatment, ˜3.69% of PAD4^+/+ neutrophils are positively stained for histone H3 citrullination but NET formation is not detected, while histone H3 citrullination or NET formation is not observed in PAD4^−/− neutrophils. After LPS treatment, an increase in histone H3 citrullination is detected in PAD4^+/+ but not in PAD4^−/− neutrophils by Western blotting or immunostaining analyses. […] The decondensed chromatin induced by LPS is positively stained by histone H3 citrullination and neutrophil elastase antibodies, indicating these structures are indeed NETs. […] Furthermore, chromatin decondensation and histone citrullination are detected in PAD4^+/+ but not in PAD4^−/− neutrophils after PMA treatment.
(§3) Table II illustrates the efficacy of LPS, PMA, and H2O2 in inducing chromatin structure changes in PAD4^+/+ and PAD4^−/− neutrophils. […] PAD4 is required for NET formation after stimulation of neutrophils.

[3] = test system: PAD4+/+ mouse neutrophils; assay: Histone citrullination, enlarged nucleus and NET formation in PAD4+/+ neutrophils; type: cell-based; conditions: for NET formation, percentage of neutrophils / Histone citrullination, percentage of positive neutrophils / Enlarged nucleus, percentage of neutrophils: PAD4+/+; for NET formation, percentage of neutrophils / Enlarged nucleus, percentage of neutrophils: Cl-amidine 200 μM 30 min prior to LPS; for Histone citrullination, percentage of positive neutrophils: Cl-amidine 200 μM 30 min prior to LPS for 3 hr; for Enlarged nucleus, percentage of neutrophils: nuclear diameter over 1.5 fold larger
Protocol: as §2, §3

p53 and its target genes = assay: RT-qPCR and Western blot of p53 and its target genes in U2OS cells; type: cell-based, human; conditions: U2OS cells
Protocol: Western blot and immunostaining was performed essentially as described in Li, P. et al., Oncogene 29 (21), 3153-3162 (2010). Antibodies used in Western blot were anti-p53 (Sigma), anti-PAD4, anti-p21 (Sigma), anti-PUMA (Calbiochem), anti-SESN2 (Abeam), anti-p70S6K (Cell Signaling), anti-p70S6K-pT389 (Cell Signaling), anti-LC3 (Cell Signaling) and anti-β-actin (Sigma) at appropriate dilutions. Anti-LC3B antibody (Cell Signaling) was used for immunostaining. DNA was stained by the DNA dye Hoechst.
RNA was extracted using RNeasy Mini Kit (Qiagen) per manufacturer's instructions. 1 μg RNA was reverse transcribed into cDNA using qScript cDNA SuperMix (Quanta Biosciences) per manufacturer's instructions. Quantitative PCR was performed using SYBR Green SuperMix (Quanta Biosciences) in StepOnePlus Real-Time PCR System (Applied Biosystems). FIG. 10 is a graph showing p53 and its target gene expression induced in S180 cells by YW3-56 in a concentration dependent manner.
U2OS and S-180 cells were cultured in Dulbecco modified Eagle medium (DMEM) supplemented with 10% fetal bovine serum and 1% penicillin-streptomycin in a 5% CO2 incubator. U2OS p53-shRNA and U2OS Ctrl-shRNA cells were generated as described in Li, P. et al., Regulation of p53 target gene expression by peptidylarginine deiminase 4. Mol Cell Bial 28 (15), 4745-4758 (2008). Concentrations and duration of YW3-56 treatment were performed as specified in the figures and text. For starvation assay, U2OS cells were first cultured in serum-free DMEM for 16 hr, 10% fetal bovine serum and different concentrations of YW3-56 was then added back and cells were further incubated for 8 hr before further analyses. SESN2 siRNA (Santa Cruz) and GFP siRNA (Dharmacon Inc.) were transfected into U2OS cells using the XtremeGene siRNA transfection reagents (Roche Inc.). Cells were incubated in the presence of the siRNA for 48 hr before adding YW3-56 and further incubated for 8 hr before analyses.
The relative abundance of each gene is compared with β-actin as a reference. Increase in several p53 target genes, such as p21, GADD45, PUMA, OKL38, DRAM, and Sestrin2, is detected after YW3-88 treatment at 12 μM concentration. […] Increase in p21 and PUMA proteins is detected.

PAD4 = PAD4 (Homo sapiens (Human), UniProt Q9UM07); assay: PAD4 enzyme activity colorimetric assay (citrullination of BAEE); type: biochemical; conditions: 0.2 μg PAD4, 5 mM BAEE, 37° C.
Protocol: PAD4 enzyme activity assays are conducted to determine PAD4 inhibitory activity. PAD4 inhibition efficacy of the inhibitors is determined using a colorimetric assay for citrullination production.
The inhibition efficacy of PAD4 inhibitors were determined by colorimetric measurement of citrulline generated by PAD4 catalyzed citrullination of BAEE. 0.2 μg PAD4 was pre-incubated with inhibitors in 100 μl buffer containing 50 mM Tris-HCl pH7.6, 5 mM CaCl2, 2 mM DTT for 0.5 hr at 37° C. The reaction was started by the addition of BAEE to 5 mM and halted 1.5 hr later with the addition of 25 μl 5 M HClO4. Then the samples were briefly centrifuged at 12000 rpm for 2 min at 4° C. and the supernatant (120 μl) were assayed for citrulline by mixing with 120 μl reagent A (0.5% w/v diacetyl monoxime and 15% w/v NaCl in water) and 240 μl reagent B (1% w/v antipyrine, 0.15% w/v ferric chloride, 25% v/v H2SO4 and 25% v/v H3PO4). The mixtures were boiled for 15 min and cooled to room temperature in ice bath. The absorbance of the reagent mixtures at 464 nm was measured by Thermo BioMate™ 3 spectrophotometer. Efficacies of inhibitors are indicated as relative PAD4 citrullination activity by normalizing the PAD4 activity without inhibitor treatment to 100%.

[4] = test system: U2OS human osteosarcoma cells; assay: MTT assay of U2OS cancer cell growth inhibition; type: cell-based; conditions: for IC50: read-out: 50% inhibition Cell growth, U2OS cells, MTT, 72 hr; for U2OS cell growth in MTT assay: 20 μM, 3 days
Protocol: MIT assays are conducted to evaluate activity to inhibit cancer cell growth. U2OS human osteosarcoma cells were treated with individual compounds at different concentrations for 72 hr in 24-well plates. MIT reagent was added to a final concentration of 0.5 mg/ml and further incubated for 4 hr. The yellow-colored MTT was reduced to insoluble purple-colored Formazan in living cells. Culture medium was removed and DMSO was added to dissolve Formazan into solution. The absorbance of the solution was then measured at 570 nm using a Thermo BioMate™ 3 spectrophotometer. Results are shown in FIG. 1 and average and standard deviations are shown (n>=3).
Cells were treated with individual compounds at different concentrations for 72 hr in 24-well plates. MTT reagent was added to a final concentration of 0.5 mg/ml and further incubated for 4 hr. The yellow-colored MTT was reduced to insoluble purple-colored Formazan in living cells. Culture medium was removed and DMSO was added to dissolve Formazan into solution. The absorbance of the solution was then measured at 570 nm using a Thermo BioMate™ 3 spectrophotometer.

[5] = test system: human HL-60 granulocytic cells; conditions: HL-60 granulocytic cells (Wang et al., 2009); cited from earlier work
[6] = read-out: 50% inhibition PAD4 activity

Sequence of PAD4 (Q9UM07 whole entry, species assumed): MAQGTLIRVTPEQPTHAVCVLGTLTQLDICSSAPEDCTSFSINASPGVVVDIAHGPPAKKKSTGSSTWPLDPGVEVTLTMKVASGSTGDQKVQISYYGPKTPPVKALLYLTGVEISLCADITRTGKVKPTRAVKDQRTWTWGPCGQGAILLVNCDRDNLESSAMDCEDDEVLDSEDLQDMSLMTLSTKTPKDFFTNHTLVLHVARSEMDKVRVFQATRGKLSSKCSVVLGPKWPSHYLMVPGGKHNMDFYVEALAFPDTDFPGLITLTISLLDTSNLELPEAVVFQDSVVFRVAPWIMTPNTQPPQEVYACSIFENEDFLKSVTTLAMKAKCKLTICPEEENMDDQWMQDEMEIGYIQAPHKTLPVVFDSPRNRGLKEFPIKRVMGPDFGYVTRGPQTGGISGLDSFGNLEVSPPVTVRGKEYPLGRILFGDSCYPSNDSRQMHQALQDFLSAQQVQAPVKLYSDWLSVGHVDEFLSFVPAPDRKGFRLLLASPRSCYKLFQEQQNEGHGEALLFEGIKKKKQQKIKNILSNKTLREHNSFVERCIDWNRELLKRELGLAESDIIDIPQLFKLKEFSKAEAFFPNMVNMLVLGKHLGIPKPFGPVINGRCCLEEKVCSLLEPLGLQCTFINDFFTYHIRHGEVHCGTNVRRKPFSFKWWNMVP

O=C(CCCCCCC(=O)Nc1ccccc1)NO [SAHA, suberoylanilide hydroxamic acid, reference compound]
growth of S180 tumor relative to control group (S180 tumor): ~44.6% | mouse growth and vital organ size ([1]; daily i.p. injection for 1 week): Neither SAHA alone nor mixtures of YW3-56 and SAHA impair

COc1cccc2c1C(=O)c1c(O)c3c(c(O)c1C2=O)C[C@@](O)(C(=O)CO)C[C@@H]3O[C@H]1C[C@H](N)[C@H](O)[C@H](C)O1 [doxorubicin]
size of spleen relative to control mice ([1]; doxorubicin 2 mg/kg i.p. daily for 1 week): ~50%

CCCCCCCCCCCCCC(=O)O[C@@H]1[C@@H](C)[C@@]2(O)[C@@H](C=C(CO)C[C@]3(O)C(=O)C(C)=C[C@@H]23)[C@@H]2C(C)(C)[C@]12OC(C)=O [PMA, phorbol myristate acetate]
Enlarged nucleus, percentage of neutrophils [2]: U.D. | Histone citrullination, percentage of positive neutrophils [2]: U.D. | NET formation, percentage of neutrophils [2]: U.D. | NET formation, percentage of neutrophils [3]: 2.7 ± 0.5%^5 | Histone citrullination, percentage of positive neutrophils [3]: 48.5 ± 3%^5 | Enlarged nucleus, percentage of neutrophils [3]: 10.9 ± 0.3%^5

OO [Structure H2O2, H2O2]
Enlarged nucleus, percentage of neutrophils [2]: U.D. | Histone citrullination, percentage of positive neutrophils [2]: U.D. | NET formation, percentage of neutrophils [2]: U.D. | NET formation, percentage of neutrophils [3]: 3 ± 0.3%^5 | Histone citrullination, percentage of positive neutrophils [3]: 48.3 ± 5.4%^5 | Enlarged nucleus, percentage of neutrophils [3]: 13.4 ± 1.4%^5

lipopolysaccharides [LPS]
Enlarged nucleus, percentage of neutrophils [2]: U.D. | Histone citrullination, percentage of positive neutrophils [2]: U.D. | NET formation, percentage of neutrophils [2]: U.D. | nuclear area increase in size (swelling nuclei) ([3]; PAD4+/+ neutrophils after LPS treatment, NIH image J): ~3.5 fold | NET formation, percentage of neutrophils [3]: 9.5 ± 0.5%^5 | Histone citrullination, percentage of positive neutrophils [3]: 42.3 ± 3.9%^5 | Enlarged nucleus, percentage of neutrophils [3]: 23.4 ± 2.7%^5

N=C(CCl)NCCC[C@H](NC(=O)c1ccccc1)C(=O)NCc1ccccc1 [BL1-07]
induction of p53 and its target genes (p53 and its target genes; even at higher concentrations): less potent | IC50 (PAD4; [6]): > 20 µM | IC50 ([4]; Homo sapiens): 10 to 20 µM

N=C(CCl)NCCC[C@H](NC(=O)c1cccc(-c2ccccc2)c1)C(=O)NCc1ccccc1 [YW4-03]
IC50 (PAD4; [6]): ~5 µM | U2OS cell growth in MTT assay [4]: abolished cell growth | IC50 ([4]; Homo sapiens): 2.5 to 5 µM

NC(=O)[C@H](CCCN=C(N)CCl)NC(=O)c1ccccc1 [Cl-amidine]
formation of NET-like structure [5]: represses the formation of NET-like structure | Enlarged nucleus, percentage of neutrophils [2]: U.D. | Histone citrullination, percentage of positive neutrophils [2]: U.D. | NET formation, percentage of neutrophils [2]: U.D. | NET formation, percentage of neutrophils [3]: 0.32 ± 0.3%^5 | Histone citrullination, percentage of positive neutrophils [3]: 8.1 ± 1.3%^5 | Enlarged nucleus, percentage of neutrophils [3]: 1.2 ± 0.2%^5 | histone H3 citrullination and chromatin decondensation induced by LPS ([3]; pretreatment of PAD4+/+ mouse neutrophils): significantly decreases | IC50 [4]: 150 to 200 µM

N=C(CCl)NCCC[C@H](NC(=O)c1ccc(-c2ccccc2)cc1)C(=O)NCc1ccccc1 [YW3-88]
p21 and PUMA proteins by Western blot (p53 and its target genes): Increase | p53 target gene mRNA (p21, GADD45, PUMA, OKL38, DRAM, Sestrin2) (p53 and its target genes; 12 μM): Increase | IC50 (PAD4; [6]): > 20 µM | U2OS cell growth in MTT assay [4]: abolished cell growth | IC50 ([4]; Homo sapiens): ~10 µM

CN(C)c1ccc2cc(C(=O)N[C@@H](CCCNC(=N)CCl)C(=O)NCc3ccc(NC(=O)CCCNC(=O)CCCCC4SCC5NC(=O)NC54)cc3)ccc2c1 (some centres unmarked) [YW4-15]
IC50 (PAD4): 1 to 5 µM | IC50 ([4]; Homo sapiens): 20 to 50 µM
